Test results published in US4190657A, “Naphthyridine derivatives” (Synthelabo, priority 1976, dated 1980).
Where two headings read alike, the source gives them in different places.

What was measured:
mice of the CD 1 strain = assay: anoxia due to pressure reduction, survival time, mean active dose (MAD); assay type: in vivo, mice (CD 1 strain); conditions: Mus musculus, ip, mice CD 1, intraperitoneal, 10 minutes before the experiment, 190 mm of mercury; Table II; read-out: ANOXIA DUE TO PRESSURE REDUCTION, mean active dose (MAD), dose which increases the survival time by 100%
Protocol: Mice of the CD 1 strain are kept in an atmosphere depleted in oxygen, by setting up a partial vacuum (190 mm. of mercury, corresponding to 5.25% of oxygen).
The survival time of the animals is noted. This time is increased by the agents capable of favouring oxygenation in the tissues and, in particular, in the brain. The compounds studied are administered intraperitoneally in several doses 10 minutes before the experiment. The percentage increases of the survival time relative to the values obtained with control animals are calculated. The mean active dose (MAD), namely the dose which increases the survival time by 100%, is determined graphically.
The results are indicated in Table II below for a representative number of compounds.

[1] = acute toxicity, 50 percent lethal dose (LD50), graphical method; assay type: in vivo; conditions: mouse, in vivo, ip, mice CD 1, intraperitoneal; Table II; read-out: ACUTE TOXICITY LD50 for intraperitoneal administration
Protocol: The 50 percent lethal dose (LD50) of the compounds is determined for mice of strain CD 1 by a graphical method.
The results are indicated in Table II below, for a representative number of compounds.

[2] = as above; conditions: mouse, in vivo, Table III
[3] = tested on: curarised rats ("sleep" induced by sodium 4-hydroxy-butyrate); assay: action on the duration of the "sleep" induced by sodium 4-hydroxy-butyrate (GHB) in curarised rats; assay type: in vivo, rats (male, Charles River strain); conditions: for TOTAL DURATION of the "sleep" / change in vivo at 10 mg/kg / change in vivo at 30 mg/kg: GHB 200 mg/kg i.v.; for TOTAL DURATION of the "sleep": over 75 minutes, comparison 54.12 ± 2.07; for change in vivo at 10 mg/kg / change in vivo at 30 mg/kg: read-out: DIFFERENCE IN % RELATIVE TO THE CONTROLS (total duration of the "sleep")
Protocol: This action was determined from the influence of the compounds on the duration of the "sleep" induced by sodium 4-hydroxy-butyrate (GHB) in curarised rats.
The animals used are male rats of the Charles River strain, weighing 200±20 g. The animals, curarised by alloferin given intraperitoneally at the rate of 1 mg/kg, are placed under artificial respiration by means of a mask applied over the snout (respiration frequency: 40/minute; volume respired: 14 cc). The oesophagus is ligatured beforehand so as to avoid air entering the stomach.
Fronto-parietal and occipital cortical electrodes make it possible to record the electrocorticographic activity on a Grass model 79P polygraph at a speed of 6 mm/sec. The animals are prepared under local anaesthesia (2% xylocaine). The rats are kept at a constant temperature (37.5° C.) throughout the experiment. Ten minutes after the end of the preparation of the rat, a dose of 200 mg/kg of Na 4-hydroxybutyrate is injected intravenously into the tail. […]
The traces are evaluated for periods of 15 minutes over the course of 75 minutes after the injection of "GHB". During this period of analysis, the total duration of the "sleep" is determined. A series of 15 comparisons makes it possible precisely to define the duration of the "GHB sleep".
The statistical analysis of the results is carried out with the aid of the Mann-Whitney "U" test.

[4] = ip, intraperitoneal, read-out: TOXICITY intraperitoneal
[5] = Rattus norvegicus, ip, 1.25 h, read-out: […] % RELATIVE TO THE CONTROLS (total duration of the "sleep"), 10 mg/kg intraperitoneally
[6] = Rattus norvegicus, ip, 1.25 h, read-out: […] % RELATIVE TO THE CONTROLS (total duration of the "sleep"), 30 mg/kg intraperitoneally
[7] = iv, read-out: TOXICITY intravenous
[8] = Rattus norvegicus, ip, 1.25 h, 30 mg/kg intraperitoneally
[9] = Rattus norvegicus, ip, 1.25 h, 10 mg/kg intraperitoneally

SMILES: COC(=O)[C@@H]1CC(=O)n2c3c(c4ccccc42)CCN(C)[C@@H]31 (relative stereo) [1 (m.s.cis), Methyl 1,2,3,3a,4,5-hexahydro-3-methyl-6-oxo-6H-indolo[3,2,1-de][1,5]naphthyridine-4-carboxylate]
- ED (100% increase in survival time) (mice of the CD 1 strain): 4 mg/kg
- LD50 [1]: 170 mg/kg

SMILES: CCOC(=O)[C@@H]1CC(=O)n2c3c(c4ccccc42)CCN(C)[C@@H]31 (relative stereo) [30 (m.s.)]
- ED (100% increase in survival time) (mice of the CD 1 strain): 9 mg/kg
- LD50 [1]: 110 mg/kg

SMILES: COC(=O)[C@@H]1CC(=O)n2c3c(c4ccccc42)CCN(C)[C@H]31 (relative stereo) [Compound 1 trans m.s., Methyl 1,2,3,3a,4,5-hexahydro-3-methyl-6-oxo-6H-indolo[3,2,1-de][1,5]naphthyridine-4-carboxylate]
- LD50 [2, 4]: 185 mg/kg
- LD50 ([2]; intravenous, read-out: TOXICITY intravenous): 47 mg/kg
- TOTAL DURATION of the "sleep" ([3]; 40 mg/kg intraperitoneally): 32.01 ± 2.59 minutes. seconds
- change in vivo at 40 mg/kg ([3]; Rattus norvegicus, ip, 1.25 h, read-out: […] % RELATIVE TO THE CONTROLS (total duration of the "sleep")): -41%

SMILES: COC(=O)[C@@H]1CC(=O)n2c3c(c4ccccc42)CCN(CCC(C)=O)[C@@H]31 (relative stereo) [Compound 49 m.s.cis]
- LD50 [2, 4]: 600 mg/kg
- TOTAL DURATION of the "sleep" ([3]; 10 mg/kg intraperitoneally): 35.22 ± 2.26 minutes. seconds
- TOTAL DURATION of the "sleep" ([3]; 30 mg/kg intraperitoneally): 38.51 ± 3.12 minutes. seconds
- change in vivo at 10 mg/kg [3, 5]: -35%
- change in vivo at 30 mg/kg [3, 6]: -28%

SMILES: COC(=O)[C@@H]1CC(=O)n2c3c(c4cc(Cl)ccc42)CCN[C@@H]31 (relative stereo) [Compound 58 cis-isomer]
- LD50 [2, 4]: 190 mg/kg
- TOTAL DURATION of the "sleep" ([3]; 30 mg/kg intraperitoneally): 36.08 ± 2.47 minutes. seconds
- change in vivo at 30 mg/kg [3, 6]: -33%

SMILES: COC(=O)[C@@H]1CC(=O)n2c3c(c4cc(Cl)ccc42)CCN[C@H]31 (relative stereo) [Compound 58 trans-isomer]
- LD50 [2, 4]: 170 mg/kg
- TOTAL DURATION of the "sleep" ([3]; 30 mg/kg intraperitoneally): 31.12 ± 2.18 minutes. seconds
- change in vivo at 30 mg/kg [3, 6]: -42%

SMILES: COC(=O)[C@@H]1CC(=O)n2c3c(c4cc(F)ccc42)CCN(C)[C@@H]31 (relative stereo) [Compound 60 cis-isomer]
- LD50 [2, 4]: 725 mg/kg
- TOTAL DURATION of the "sleep" ([3]; 10 mg/kg intraperitoneally): 34.22 ± 2.47 minutes. seconds
- change in vivo at 10 mg/kg [3, 5]: -37%

SMILES: CC(O)CCN1CCc2c3n(c4ccccc24)C(=O)CCC31 (single isomer, unassigned) [35 (base, isomer A)]
- ED (100% increase in survival time) (mice of the CD 1 strain): 9 mg/kg
- LD50 [1]: 150 mg/kg

SMILES: CC(O)CN1CCc2c3n(c4ccccc24)C(=O)CCC31 (single isomer, unassigned) [Compound 63 isomer A]
- LD50 [2, 4]: 125 mg/kg
- LD50 [2, 7]: 75 mg/kg
- TOTAL DURATION of the "sleep" ([3]; 30 mg/kg intraperitoneally): 34.52 ± 2.14 minutes. seconds
- change in vivo at 30 mg/kg [3, 8]: -36%

SMILES: CCN1CCc2c3n(c4ccccc24)C(C)CCC31 (stereo not shown) [28 (m.s.)]
- ED (100% increase in survival time) (mice of the CD 1 strain): 4.5 mg/kg
- LD50 [1]: 40 mg/kg

SMILES: CN1CCc2c3n(c4ccccc24)C(=O)CCC31 (stereo not shown) [Compound 2 (base), 1,2,3,3a,4,5-Hexahydro-3-methyl-6H-indolo[3,2,1-de][1,5]naphthyridin-6-one]
- ED (100% increase in survival time) (mice of the CD 1 strain): 6 mg/kg
- LD50 [1]: 85 mg/kg

SMILES: CCN1CCc2c3n(c4ccccc24)C(=O)CCC31 (stereo not shown) [Compound 3]
- ED (100% increase in survival time) (mice of the CD 1 strain): 9 mg/kg
- LD50 [1]: 58 mg/kg

SMILES: CC1=CCC2c3c(c4ccccc4n31)CCN2C (stereo not shown) [Compound 9, 1,2,3,3a-Tetrahydro-3,6-dimethyl-4H-indolo[3,2,1-de][1,5]naphthyridine]
- ED (100% increase in survival time) (mice of the CD 1 strain): 6.5 mg/kg
- LD50 [1]: 78 mg/kg

SMILES: CC1CCC2c3c(c4ccccc4n31)CCN2C (stereo not shown) [Compound 10]
- ED (100% increase in survival time) (mice of the CD 1 strain): 6.5 mg/kg
- LD50 [1]: 50 mg/kg

SMILES: Cc1ccc2c(c1)c1c3n2C(=O)CCC3NCC1 (stereo not shown) [Compound 11]
- LD50 [2, 4]: 155 mg/kg
- LD50 [2, 7]: 105 mg/kg
- TOTAL DURATION of the "sleep" ([3]; 30 mg/kg intraperitoneally): 34.08 ± 1.21 minutes. seconds
- change in vivo at 30 mg/kg [3, 8]: -37%

SMILES: COC(=O)CCN1CCc2c3n(c4ccccc24)C(=O)CCC31 (stereo not shown) [Compound 19]
- LD50 [2, 4]: 680 mg/kg
- LD50 [2, 7]: 103 mg/kg
- TOTAL DURATION of the "sleep" ([3]; 30 mg/kg intraperitoneally): 38.59 ± 1.20 minutes. seconds
- change in vivo at 30 mg/kg [3, 8]: -28%

SMILES: CCN1CCc2c3n(c4ccccc24)C(C)(O)CCC31 (stereo not shown) [Compound 21]
- ED (100% increase in survival time) (mice of the CD 1 strain): 7 mg/kg
- LD50 [1]: 75 mg/kg

SMILES: CCCN1CCc2c3n(c4ccccc24)C(C)(O)CCC31 (stereo not shown) [Compound 22]
- ED (100% increase in survival time) (mice of the CD 1 strain): 8 mg/kg
- LD50 [1]: 105 mg/kg

SMILES: CCN1CCc2c3n(c4ccccc24)C(C)=CCC31 (stereo not shown) [Compound 26]
- ED (100% increase in survival time) (mice of the CD 1 strain): 10 mg/kg
- LD50 [1]: 67 mg/kg

SMILES: CC(=O)CCN1CCc2c3n(c4ccccc24)C(=O)CCC31 (stereo not shown) [Compound 33]
- ED (100% increase in survival time) (mice of the CD 1 strain): 8 mg/kg
- LD50 [1]: 170 mg/kg

SMILES: COc1ccc2c(c1)c1c3n2C(=O)CCC3N(C)CC1 (stereo not shown) [Compound 38]
- ED (100% increase in survival time) (mice of the CD 1 strain): 8 mg/kg
- LD50 [1]: 65 mg/kg

SMILES: COC(=O)C1CC(=O)n2c3c(c4cc(Cl)ccc42)CCNC31 (stereo not shown) [Compound 51]
- LD50 [2, 4]: 760 mg/kg
- TOTAL DURATION of the "sleep" ([3]; 30 mg/kg intraperitoneally): 37.51 ± 2.12 minutes. seconds
- change in vivo at 30 mg/kg [3, 6]: -30%

SMILES: CN1CCc2c3n(c4ccc(Cl)cc24)C(=O)CCC31 (stereo not shown) [Compound 53]
- ED (100% increase in survival time) (mice of the CD 1 strain): 8 mg/kg
- LD50 [1]: 150 mg/kg

SMILES: O=C1CCC2NCCc3c2n1c1ccc(F)cc31 (stereo not shown) [Compound 54]
- LD50 [2, 4]: 100 mg/kg
- TOTAL DURATION of the "sleep" ([3]; 10 mg/kg intraperitoneally): 40.01 ± 5.00 minutes. seconds
- TOTAL DURATION of the "sleep" ([3]; 30 mg/kg intraperitoneally): 28.28 ± 4.28 minutes. seconds
- change in vivo at 10 mg/kg [3, 9]: -26%
- change in vivo at 30 mg/kg [3, 8]: -47%

SMILES: CC(=O)CCN1CCc2c3n(c4ccc(Cl)cc24)C(=O)CCC31 (stereo not shown) [Compound 56]
- LD50 [2, 4]: 575 mg/kg
- TOTAL DURATION of the "sleep" ([3]; 10 mg/kg intraperitoneally): 43.07 ± 3.26 minutes. seconds
- TOTAL DURATION of the "sleep" ([3]; 30 mg/kg intraperitoneally): 30.39 ± 3.01 minutes. seconds
- change in vivo at 10 mg/kg [3, 9]: -20%
- change in vivo at 30 mg/kg [3, 8]: -43%

SMILES: CC(=O)CN1CCc2c3n(c4ccccc24)C(=O)CCC31 (stereo not shown) [Compound 62]
- ED (100% increase in survival time) (mice of the CD 1 strain): 10 mg/kg
- LD50 [1]: 190 mg/kg

SMILES: O=C1CCC2NCCc3c2n1c1cccc(Cl)c31 (stereo not shown) [Compound 65]
- LD50 [2, 4]: 54 mg/kg
- TOTAL DURATION of the "sleep" ([3]; 10 mg/kg intraperitoneally): 34.51 ± 1.42 minutes. seconds
- change in vivo at 10 mg/kg [3, 9]: -36%

SMILES: Cc1ccc2c3c4n(c2c1)C(=O)CCC4N(C)CC3 (stereo not shown) [Compound 69]
- LD50 [2, 4]: 88 mg/kg
- TOTAL DURATION of the "sleep" ([3]; 10 mg/kg intraperitoneally): 29.46 ± 1.27 minutes. seconds
- change in vivo at 10 mg/kg [3, 9]: -45%
